Literature values as cited in patent US12178826B2, “Formulations for the delivery of autophagy stimulating trehalose” (priority 2017, dated 2024).

Columns and labels:
[1] = system: mutant SOD1 transgenic mice; details: Trehalose administration
[2] = after inhalation; general statement, no test described

OC[C@H]1O[C@H](O[C@H]2O[C@H](CO)[C@@H](O)[C@H](O)[C@H]2O)[C@H](O)[C@@H](O)[C@@H]1O [Trehalose, (2R,3S,4S,5R,6R)-2-(Hydroxymethyl)-6-[(2R,3R,4S,5S,6R)-3,4,5-trihydroxy-6-(hydroxymethyl)oxan-2-yl]oxyoxane-3,4,5-triol]
accumulation of SOD1 aggregates [1]: decreased accumulation of SOD1 aggregates | life span [1]: significantly prolonged life span | motoneuron survival [1]: enhanced motoneuron survival | mutant SOD1 degradation by autophagy (NSC34 motoneuron cells): led to mutant SOD1 degradation by autophagy | time to absorption from the lungs into the bloodstream [2]: ≤ 2 h
